Assay: xn = mol fraction of the nth substance listed
Conditions: 100 kPa, Liquid; for mass density: Vibrating tube method; for viscosity: Capillary tube (Ostwald / Ubbelohde) method; for speed of sound: Frequency=3 MHz, Single path-length method

C=CCn1cc[n+](C)c1.O=S(=O)([N-]S(=O)(=O)C(F)(F)F)C(F)(F)F + CCCO
Conditions | mass density [kg/m3] | speed of sound [m/s] | viscosity [mPa·s]
318.15 K, x1 = 0.5003 | 1326 | – | –
318.15 K, x1 = 0.6007 | 1369 | – | –
318.15 K, x1 = 0.6971 | 1403 | – | –
318.15 K, x1 = 0.8024 | 1434 | – | –
318.15 K, x1 = 0.8974 | 1457 | – | –
318.15 K, x1 = 1 | 1479 | – | –
323.15 K, x1 = 0.04962 | 889 | 1113 | 1.421
323.15 K, x1 = 0.1003 | 977 | 1108 | 1.813
323.15 K, x1 = 0.1995 | 1107 | 1115.1 | 2.632
323.15 K, x1 = 0.2987 | 1199 | 1127.5 | 3.453
323.15 K, x1 = 0.399 | 1268 | 1138.3 | 4.402
323.15 K, x1 = 0.5003 | 1321 | 1150.3 | 5.384
323.15 K, x1 = 0.6007 | 1364 | 1158.2 | 6.806
323.15 K, x1 = 0.6971 | 1398 | 1166.3 | 8.132
323.15 K, x1 = 0.8024 | 1429 | 1174.3 | 9.945
323.15 K, x1 = 0.8974 | 1452 | 1179.6 | 12.12
323.15 K, x1 = 1 | 1474 | 1185.2 | 15.19
328.15 K, x1 = 0.04962 | 884 | 1097.9 | 1.284
328.15 K, x1 = 0.1003 | 973 | 1094 | 1.635
328.15 K, x1 = 0.1995 | 1102 | 1102.2 | 2.37
328.15 K, x1 = 0.2987 | 1194 | 1115.3 | 3.106
328.15 K, x1 = 0.399 | 1263 | 1126.6 | 3.956
328.15 K, x1 = 0.5003 | 1316 | 1138.8 | 4.83
328.15 K, x1 = 0.6007 | 1359 | 1147 | 6.09
328.15 K, x1 = 0.6971 | 1393 | 1155.3 | 7.262
328.15 K, x1 = 0.8024 | 1424 | 1163.5 | 8.834
328.15 K, x1 = 0.8974 | 1447 | 1168.9 | 10.73
328.15 K, x1 = 1 | 1469 | 1174.7 | 13.23
333.15 K, x1 = 0.04962 | 880 | 1082.7 | 1.166
333.15 K, x1 = 0.1003 | 968 | 1080 | 1.48
333.15 K, x1 = 0.1995 | 1097 | 1089.5 | 2.146
333.15 K, x1 = 0.2987 | 1189 | 1103.1 | 2.812
333.15 K, x1 = 0.399 | 1258 | 1114.9 | 3.573
333.15 K, x1 = 0.5003 | 1312 | 1127.5 | 4.36
333.15 K, x1 = 0.6007 | 1354 | 1135.9 | 5.485
333.15 K, x1 = 0.6971 | 1388 | 1144.5 | 6.518
333.15 K, x1 = 0.8024 | 1419 | 1152.8 | 7.905
333.15 K, x1 = 0.8974 | 1442 | 1158.4 | 9.475
333.15 K, x1 = 1 | 1465 | 1164.2 | 11.62
338.15 K, x1 = 0.04962 | 875 | 1067.5 | 1.061
338.15 K, x1 = 0.1003 | 963 | 1065.9 | 1.347
338.15 K, x1 = 0.1995 | 1092 | 1076.7 | 1.953
338.15 K, x1 = 0.2987 | 1184 | 1091 | 2.558
338.15 K, x1 = 0.399 | 1253 | 1103.4 | 3.252
338.15 K, x1 = 0.5003 | 1307 | 1116.2 | 3.957
338.15 K, x1 = 0.6007 | 1349 | 1124.9 | 4.964
338.15 K, x1 = 0.6971 | 1383 | 1133.8 | 5.889
338.15 K, x1 = 0.8024 | 1414 | 1142.2 | 7.111
338.15 K, x1 = 0.8974 | 1437 | 1147.9 | 8.498
338.15 K, x1 = 1 | 1460 | 1153.8 | 10.28
343.15 K, x1 = 0.04962 | 870 | 1052.3 | 0.971
343.15 K, x1 = 0.1003 | 958 | 1052.2 | 1.23
343.15 K, x1 = 0.1995 | 1088 | 1064.2 | 1.786
343.15 K, x1 = 0.2987 | 1179 | 1078.9 | 2.342
343.15 K, x1 = 0.399 | 1248 | 1092.1 | 2.974
343.15 K, x1 = 0.5003 | 1302 | 1105 | 3.611
343.15 K, x1 = 0.6007 | 1345 | 1114 | 4.521
343.15 K, x1 = 0.6971 | 1378 | 1123.3 | 5.348
343.15 K, x1 = 0.8024 | 1409 | 1131.9 | 6.435
343.15 K, x1 = 0.8974 | 1433 | 1137.8 | 7.661
343.15 K, x1 = 1 | 1455 | 1143.5 | 9.125

From the NIST ThermoML archive (doi:10.1021/acs.jced.8b00537)
